We go through 2 compounds from the NIST ThermoML archive (doi:10.1016/j.fluid.2014.03.019).

± gives the expanded uncertainty stated by the source.

The nature of data set [1]: refractive index (Na D-line) (dimensionless); wn = mass fraction of the nth substance listed. The conditions noted are these: Liquid, Standard Abbe refractometry.
The nature of data set [2]: wn = mass fraction of the nth substance listed. To be noted: Liquid, Vibrating tube method.

With `O=B[O-].[Li+]` [lithium metaborate] + O, the refractive index (usually the speed of light in vacuum divided by its phase velocity in the sample) is listed as 1.341 ± 0.0005 in data set [1] (288.15 K, w1 = 0.0187) and 1.3452 ± 0.0004 in data set [1] (298.15 K, w1 = 0.0336). Besides, the mass density (in general, mass per unit of volume) worked out at 1023.17 ± 0.34 kg/m3 in data set [2] (288.15 K, w1 = 0.0187) and 1035.63 ± 0.26 kg/m3 in data set [2] (298.15 K, w1 = 0.0336).

`O=S(=O)([O-])[O-].[Li+].[Li+]` [lithium sulfate] + O: the refractive index in data set [1] (288.15 K, w1 = 0.2596) is 1.3788 ± 0.0005; in data set [1] (298.15 K, w1 = 0.2561) it was 1.3771 ± 0.0006. The mass density was found to be 1246.65 ± 1.8 kg/m3 in data set [2] (288.15 K, w1 = 0.2596) and 1245.02 ± 2.7 kg/m3 in data set [2] (298.15 K, w1 = 0.2561).
